Bounds are passed on as bounds.

The inhibition is the drop in the measured response relative to a control, in per cent.

For experiment [1], the system named is PC-3M-Luc-C6 prostate cells. The experiment is described as follows: In vitro PC-3M-Luc-C6 prostate cell proliferation assay in lipid reduced medium. The format is cell-based. As to conditions: 96 h, read-out: pIC50 PC-3M-Luc-C6 prostate cell (converted).
The subject of experiment [2] is A2780 ovarian cells. Description: A2780 ovarian cell proliferation assay in lipid reduced medium, without palmitate (MTT). The format is cell-based. As to conditions: Homo sapiens, A2780, 96 h; read-out: pIC50 A2780 Ovarian Cell, Without Palmitate (converted).
For experiment [3], the system named is LNCaP-Vancouver prostate cells. Description: In vitro LNCaP Vancouver prostate cell proliferation assay in lipid reduced medium. The class given is cell-based. As to conditions: read-out: pIC50 LNCaP_Vancouver prostate cell (converted).
For experiment [4], the target named is T1, hFASN enzyme (full length) (Homo sapiens, UniProt P49327).
T1 construct: 10 μL hFASN enzyme (full length, 300 ng, purified in house); made in house
T1 sequence (P49327 whole entry): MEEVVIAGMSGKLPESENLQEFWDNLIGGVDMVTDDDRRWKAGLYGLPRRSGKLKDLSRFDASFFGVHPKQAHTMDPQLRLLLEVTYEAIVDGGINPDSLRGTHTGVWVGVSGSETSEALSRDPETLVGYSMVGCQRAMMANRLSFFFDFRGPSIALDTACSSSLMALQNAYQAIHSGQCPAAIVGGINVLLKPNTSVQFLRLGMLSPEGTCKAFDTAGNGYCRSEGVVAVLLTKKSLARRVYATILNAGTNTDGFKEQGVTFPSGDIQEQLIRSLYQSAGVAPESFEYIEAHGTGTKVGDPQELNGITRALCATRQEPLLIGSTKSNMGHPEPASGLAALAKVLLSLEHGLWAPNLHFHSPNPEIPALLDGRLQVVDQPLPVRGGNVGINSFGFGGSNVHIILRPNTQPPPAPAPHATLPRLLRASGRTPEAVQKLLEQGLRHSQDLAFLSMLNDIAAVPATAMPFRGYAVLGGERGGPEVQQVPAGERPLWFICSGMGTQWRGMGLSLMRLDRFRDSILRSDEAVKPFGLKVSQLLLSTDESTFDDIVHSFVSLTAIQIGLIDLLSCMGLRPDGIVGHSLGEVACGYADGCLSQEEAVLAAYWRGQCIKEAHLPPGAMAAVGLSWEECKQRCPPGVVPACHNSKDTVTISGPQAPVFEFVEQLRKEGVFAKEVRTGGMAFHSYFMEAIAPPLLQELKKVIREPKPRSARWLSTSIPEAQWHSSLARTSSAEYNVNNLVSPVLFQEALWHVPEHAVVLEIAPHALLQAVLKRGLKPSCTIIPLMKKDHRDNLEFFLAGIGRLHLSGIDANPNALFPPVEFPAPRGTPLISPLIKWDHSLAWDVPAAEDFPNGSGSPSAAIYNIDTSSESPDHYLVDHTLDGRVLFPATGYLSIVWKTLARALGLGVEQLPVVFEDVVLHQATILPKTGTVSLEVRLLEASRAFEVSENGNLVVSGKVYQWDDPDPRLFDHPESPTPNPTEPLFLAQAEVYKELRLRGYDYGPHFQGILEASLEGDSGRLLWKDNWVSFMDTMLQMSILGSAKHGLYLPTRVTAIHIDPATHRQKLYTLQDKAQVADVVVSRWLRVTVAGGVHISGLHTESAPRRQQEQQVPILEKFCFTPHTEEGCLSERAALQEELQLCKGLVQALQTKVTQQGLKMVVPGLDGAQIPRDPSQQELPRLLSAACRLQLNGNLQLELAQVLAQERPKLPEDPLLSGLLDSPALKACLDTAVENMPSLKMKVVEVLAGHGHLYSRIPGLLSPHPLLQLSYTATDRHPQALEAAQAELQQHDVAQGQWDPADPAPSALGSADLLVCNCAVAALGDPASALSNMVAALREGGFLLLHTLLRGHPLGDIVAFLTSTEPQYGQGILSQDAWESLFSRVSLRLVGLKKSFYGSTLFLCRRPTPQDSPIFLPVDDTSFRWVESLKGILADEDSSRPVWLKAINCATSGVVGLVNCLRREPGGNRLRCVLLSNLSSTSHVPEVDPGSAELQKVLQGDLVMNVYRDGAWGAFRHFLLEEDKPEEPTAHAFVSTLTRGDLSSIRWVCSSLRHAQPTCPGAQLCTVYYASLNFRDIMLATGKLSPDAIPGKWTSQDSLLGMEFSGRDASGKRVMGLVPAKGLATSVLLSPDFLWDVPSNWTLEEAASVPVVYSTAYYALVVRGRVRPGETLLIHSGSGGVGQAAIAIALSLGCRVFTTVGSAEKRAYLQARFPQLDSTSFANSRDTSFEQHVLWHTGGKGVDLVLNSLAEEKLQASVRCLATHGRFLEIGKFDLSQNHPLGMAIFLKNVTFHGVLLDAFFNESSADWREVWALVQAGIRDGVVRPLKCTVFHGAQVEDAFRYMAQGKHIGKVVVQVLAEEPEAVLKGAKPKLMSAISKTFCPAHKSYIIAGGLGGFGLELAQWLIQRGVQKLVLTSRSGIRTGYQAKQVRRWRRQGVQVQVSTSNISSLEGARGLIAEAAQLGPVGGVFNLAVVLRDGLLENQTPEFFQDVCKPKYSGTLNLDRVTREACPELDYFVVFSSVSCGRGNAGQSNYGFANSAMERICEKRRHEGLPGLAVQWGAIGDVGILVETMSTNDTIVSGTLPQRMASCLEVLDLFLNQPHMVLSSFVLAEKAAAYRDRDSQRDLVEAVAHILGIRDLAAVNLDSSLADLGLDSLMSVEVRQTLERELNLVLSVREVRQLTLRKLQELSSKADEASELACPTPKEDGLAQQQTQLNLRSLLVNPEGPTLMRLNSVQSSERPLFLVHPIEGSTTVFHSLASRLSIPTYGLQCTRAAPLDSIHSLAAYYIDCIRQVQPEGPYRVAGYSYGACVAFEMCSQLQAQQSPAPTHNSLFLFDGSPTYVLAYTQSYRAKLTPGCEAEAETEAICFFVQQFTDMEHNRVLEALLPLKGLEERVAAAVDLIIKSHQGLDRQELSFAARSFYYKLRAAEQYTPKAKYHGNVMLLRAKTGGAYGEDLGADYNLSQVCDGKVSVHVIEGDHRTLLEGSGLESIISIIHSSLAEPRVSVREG
Description: Fatty Acid Synthase (FASN) inhibition scintillation proximity assay. The class given is biochemical. The settings on record: for inhibition at 10 µM: read-out: Human FASN % inhibition @ 10 μM, 10 μM test compound; for IC50: read-out: Human FASN pIC50 (converted). Put shortly:
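Scintillation proximity format: in-house full-length enzyme, 300 ng per well, pH 7.5 phosphate/DTT buffer, ³H-acetyl-CoA and malonyl-CoA. Emission counted on LEADseeker at 610 nm at least 24 h after stopping.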
In general terms: SPA uses beads or plates that emit light when radiolabelled molecules are held near them.

Experiment [5] deals with Fatty Acid Synthase Keto-reductase Domain (FASN KR) (Homo sapiens, UniProt P49327). The experiment is described as follows: Fatty Acid Synthase keto-reductase domain (FASN KR) inhibition, NADPH oxidation at 340 nm.
Fatty Acid Synthase Keto-reductase Domain (FASN KR), sequence (P49327 whole entry, the tested form may be a part): as the sequence (P49327 whole entry) above
Description: After 20 minutes incubation at room temperature the plate was measured again (T2).
The decrease in absorbance was calculated as (Absorbance before incubation T1)−(Absorbance following incubation T2).
A plot of Controlmin versus test compound concentration was fitted to a 4-parameter logistic curve using a non-linear least squares regression method.
Experiment [6] has as its system A2780 ovarian cells. Description: A2780 ovarian cell proliferation assay in lipid reduced medium, with palmitate (MTT). The format is cell-based. The settings on record: Homo sapiens, A2780, 96 h; read-out: pIC50 A2780 Ovarian Cell, With Palmitate (converted). The gist of the method: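 In this palmitate-supplemented format, compound dilutions (30 μM down to 0.01 μM) are added to cells in lipid-reduced serum with 25 μM palmitate, 0.2% fatty-acid-free BSA and 0.25% ethanol. After four days (96 h) MTT absorbance at 544 nm is recorded and fitted by minimum sum of squares.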

For `Cn1ncc2cc(-c3ccc(C4=NC5(CC5)C(=O)N4CC4CN(C(=O)C5CC5)C4)c(Cl)c3)ccc21` [compound 584, 5-[2-Chloro-4-(1-methyl-1H-indazol-5-yl)phenyl]-6-{[1-(cyclopropylcarbonyl)azetidin-3-yl]methyl}-4,6-diazaspiro[2.4]hept-4-en-7-one], the IC50 was 83.2 nM in experiment [1]; 63.1 nM in the experiment with A2780 ovarian cells [2]; 646 nM in experiment [3]; 135 nM in experiment [4]; 170 nM in experiment [5]; 6610 nM with A2780 ovarian cells [6]. Besides, the inhibition at 10 µM in experiment [4] worked out at 91%.
For `Cc1cc(-c2ccc3ccc(Cl)nc3c2)ccc1C1=NC2(CC2)C(=O)N1CC1CN(C(=O)C2(C)CC2)C1` [compound 594, 5-[4-(2-Chloroquinolin-7-yl)-2-methylphenyl]-6-({1-[(1-methylcyclopropyl)carbonyl]azetidin-3-yl}methyl)-4,6-diazaspiro[2.4]hept-4-en-7-one], the IC50 is around 589 nM in experiment [1]; 617 nM in the experiment on A2780 ovarian cells [2]; 1910 nM in experiment [3]; 245 nM in experiment [4]; 1070 nM in experiment [5]; above 10000 nM in the experiment with A2780 ovarian cells [6]. Further, the inhibition at 10 µM in experiment [4] worked out at 102%.
As for `Cc1cc(-c2cccc3nn(C)cc23)ccc1C1=NC2(CC2)C(=O)N1CC1CN(C(=O)C2(C)CC2)C1` [compound 598, 6-({1-[(1-Methylcyclopropyl)carbonyl]azetidin-3-yl}methyl)-5-[2-methyl-4-(2-methyl-2H-indazol-4-yl)phenyl]-4,6-diazaspiro[2.4]hept-4-en-7-one], the IC50 in experiment [1] was around 355 nM; in the experiment with A2780 ovarian cells [2], 200 nM; in experiment [3], 2340 nM; in experiment [4] it was 209 nM; in experiment [5], 309 nM; in the experiment on A2780 ovarian cells [6], above 10000 nM. In addition, in experiment [4], the inhibition at 10 µM was determined as 103%.
As to `Cc1cc(-c2nn(C)c3ccccc23)ccc1C1=NC2(CC2)C(=O)N1CC1CN(C(=O)C2(C)CC2)C1` [compound 600, 6-({1-[(1-Methylcyclopropyl)carbonyl]azetidin-3-yl}methyl)-5-[2-methyl-4-(1-methyl-1H-indazol-3-yl)phenyl]-4,6-diazaspiro[2.4]hept-4-en-7-one], the IC50 in experiment [1] was 501 nM; with A2780 ovarian cells [2] it was around 603 nM; in experiment [3], 2240 nM; in experiment [4], 417 nM; in experiment [5], 1200 nM; in the experiment with A2780 ovarian cells [6] it was above 10000 nM. In addition, the inhibition at 10 µM in experiment [4] came to 98%.
As to `Cc1cc(-c2ccc(-c3ccn(CC4CC4)n3)cc2)ccc1C1=NC2(CC2)C(=O)N1CC1CN(C(=O)C2(C)CC2)C1` [compound 601, 5-{4′-[1-(Cyclopropylmethyl)-1H-pyrazol-3-yl]-3-methylbiphenyl-4-yl}-6-({1-[(1-methylcyclopropyl)carbonyl]azetidin-3-yl}methyl)-4,6-diazaspiro[2.4]hept-4-en-7-one], the IC50 is 316 nM in experiment [1]; 219 nM with A2780 ovarian cells [2]; 1020 nM in experiment [3]; 186 nM in experiment [4]; 501 nM in experiment [5]; 3890 nM in the experiment on A2780 ovarian cells [6]. The inhibition at 10 µM in experiment [4] was determined as 100%.
As for `Cc1cc(-c2ccc(-c3ccn(CC(C)C)n3)cc2)ccc1C1=NC2(CC2)C(=O)N1CC1CN(C(=O)C2(C)CC2)C1` [compound 602, 6-({1-[(1-Methylcyclopropyl)carbonyl]azetidin-3-yl}methyl)-5-{3-methyl-4′-[1-(2-methylpropyl)-1H-pyrazol-3-yl]biphenyl-4-yl}-4,6-diazaspiro[2.4]hept-4-en-7-one], the IC50 was 692 nM in experiment [1]; 380 nM in the experiment on A2780 ovarian cells [2]; 1480 nM in experiment [3]; 324 nM in experiment [4]; 1550 nM in experiment [5]; 6170 nM in the experiment on A2780 ovarian cells [6]. Further, in experiment [4], the inhibition at 10 µM turned out to be 94%.
Regarding `Cc1cc(-c2ccc3ccc(C#N)nc3c2)ccc1C1=NC2(CC2)C(=O)N1CC1CN(C(=O)C2(C)CC2)C1` [compound 604, 7-{3-Methyl-4-[6-({1-[(1-methylcyclopropyl)carbonyl]azetidin-3-yl}methyl)-7-oxo-4,6-diazaspiro[2.4]hept-4-en-5-yl]phenyl}quinoine-2-carbonitrile], the IC50 in experiment [1] is 4170 nM; with A2780 ovarian cells [2], 2340 nM; in experiment [3] it was above 10000 nM; in experiment [4], 1120 nM; in experiment [5] it was 8710 nM; in the experiment on A2780 ovarian cells [6], around 10000 nM. Also, the inhibition at 10 µM in experiment [4] amounted to 84%.
As for `Cn1nc(Cl)c2ccc(-c3ccc(C4=NC5(CC5)C(=O)N4CC4CN(C(=O)C5CC5)C4)c(F)c3)cc21` [compound 606, 5-[4-(3-Chloro-1-methyl-1H-indazol-6-yl)-2-fluorophenyl]-6-{[1-(cyclopropylcarbonyl)azetidin-3-yl]methyl}-4,6-diazaspiro[2.4]hept-4-en-7-one], the IC50 in experiment [1] was 1120 nM; with A2780 ovarian cells [2] it was 1230 nM; in experiment [3], 2400 nM; in experiment [4] it was 209 nM; in experiment [5], 1450 nM; with A2780 ovarian cells [6], above 10000 nM. The inhibition at 10 µM in experiment [4] amounted to 97%.
On to `Cn1nc(Cl)c2cc(-c3ccc(C4=NC5(CC5)C(=O)N4CC4CN(C(=O)C5CC5)C4)c(F)c3)ccc21` [compound 607, 5-[4-(3-Chloro-1-methyl-1H-indazol-5-yl)-2-fluorophenyl]-6-{[1-(cyclopropylcarbonyl)azetidin-3-yl]methyl}-4,6-diazaspiro[2.4]hept-4-en-7-one], for which the IC50 is 178 nM in experiment [1]; 646 nM in the experiment with A2780 ovarian cells [2]; 1100 nM in experiment [3]; 158 nM in experiment [4]; 537 nM in experiment [5]; above 10000 nM with A2780 ovarian cells [6]. In addition, in experiment [4], the inhibition at 10 µM is 102%.
Turning to `Cn1nc(CO)c2cc(-c3ccc(C4=NC5(CC5)C(=O)N4CC4CN(C(=O)C5CC5)C4)c(F)c3)ccc21` [compound 609, 6-{[1-(Cyclopropylcarbonyl)azetidin-3-yl]methyl}-5-{2-fluoro-4-[3-(hydroxymethyl)-1-methyl-1H-indazol-5-yl]phenyl}-4,6-diazaspiro[2.4]hept-4-en-7-one], the IC50 in experiment [1] is 661 nM; in the experiment on A2780 ovarian cells [2] it was around 263 nM; in experiment [3], 4790 nM; in experiment [4] it was 186 nM; in experiment [5], 676 nM; in the experiment on A2780 ovarian cells [6], above 10000 nM. Also, the inhibition at 10 µM in experiment [4] amounted to 99%.
`Cc1cc(-c2cccc(NS(=O)(=O)C3CC3)c2)ccc1C1=NC2(CC2)C(=O)N1C[C@@H]1CCN(C(=O)C2CC2)C1` [compound 613, N-[4′-(6-{[(3R)-1-(Cyclopropylcarbonyl)pyrrolidin-3-yl]methyl}-7-oxo-4,6-diazaspiro[2.4]hept-4-en-5-yl)-3′-methylbiphenyl-3-yl]cyclopropanesulfonamide]: the IC50 in experiment [1] is 97.7 nM; in the experiment with A2780 ovarian cells [2], 107 nM; in experiment [3], 851 nM; in experiment [4], 115 nM; in experiment [5] it was 229 nM; with A2780 ovarian cells [6], above 10000 nM. Besides, in experiment [4], the inhibition at 10 µM was 102%.
For `O=C(Nc1cccc(-c2ccc(C3=NC4(CC4)C(=O)N3CC3CN(C(=O)C4CC4)C3)c(F)c2)c1)C1CC1` [compound 615, N-[4′-(6-{[1-(Cyclopropylcarbonyl)azetidin-3-yl]methyl}-7-oxo-4,6-diazaspiro[2.4]hept-4-en-5-yl)-3′-fluorobiphenyl-3-yl]cyclopropanecarboxamide], the IC50 is around 2340 nM in experiment [1]; 501 nM in the experiment on A2780 ovarian cells [2]; 3240 nM in experiment [3]; 324 nM in experiment [4]; 1050 nM in experiment [5]; above 10000 nM in the experiment on A2780 ovarian cells [6]. The inhibition at 10 µM in experiment [4] is 98%.
Take `N#Cc1ccc2ccc(-c3ccc(C4=NC5(CC5)C(=O)N4CC4CN(C(=O)C5CC5)C4)c(F)c3)cc2c1` [compound 616, 7-[4-(6-{[1-(Cyclopropylcarbonyl)azetidin-3-yl]methyl}-7-oxo-4,6-diazaspiro[2.4]hept-4-en-5-yl)-3-fluorophenyl]naphthalene-2-carbonitrile]: the IC50 in experiment [1] is above 10000 nM; in the experiment on A2780 ovarian cells [2] it was 1820 nM; in experiment [3], 3160 nM; in experiment [4], 513 nM; in experiment [5] it was 1550 nM; with A2780 ovarian cells [6], above 10000 nM. For the same molecule, the inhibition at 10 µM in experiment [4] was found to be 94%.
For the molecule `COc1ccc2ccc(-c3ccc(C4=NC5(CC5)C(=O)N4CC4CN(C(=O)C5(O)CC5)C4)c(F)c3)cc2c1` [compound 617, 5-[2-Fluoro-4-(7-methoxynaphthalen-2-yl)phenyl]-6-({1-[(1-hydroxycyclopropyl)carbonyl]azetidin-3-yl}methyl)-4,6-diazaspiro[2.4]hept-4-en-7-one], the IC50 in experiment [1] is 646 nM; in the experiment with A2780 ovarian cells [2] it was 245 nM; in experiment [3] it was 2570 nM; in experiment [4], 166 nM; in experiment [5], 631 nM; with A2780 ovarian cells [6], above 10000 nM. For the same molecule, the inhibition at 10 µM in experiment [4] is 100%.

The values are drawn from patent US10077261B2, “Imidazolin-5-one derivative useful as FASN inhibitors for the treatment of cancer” (Janssen Pharmaceutica NV, priority 2012, dated 2018).
